In patent US4968788A, “Biologically reversible phosphate and phosphonate protective gruops” (Board of Regents, The University of Texas System, priority 1989, dated 1990):
Values belong to the molecule of their own block, whether it stands above or below them.

How the values were obtained:
physchem = format: physicochemical
Method: Several tests have been performed with both types of protected compositions. […] The stabilities of these protected compositions were determined in aqueous buffered solutions having pH ranging from 1 to 10, and also under selected biological conditions. Except for the acetoxymethyl derivatives of the second type, these phosphoesters were relatively stable in a neutral environment. They reverted to their parent compounds in acidic or basic media.
The protected product was stable in neutral aprotic solvents such as benzene, diethyl ether and ethyl acetate. […] The half-life was greater than 4 hours.
These solutions were analyzed by (HPLC) high performance liquid chromatography (Waters model ALC 204). The disappearance of the bis(acyloxymethyl) phosphate was monitored by reversed-phase chromatography on a column of μ Bondapak-C18 (30 cm×4 mm i.d., 10 μm; Waters Assoc., Milford, Mass.) using solutions of 0.01M potassium phosphate buffer (pH 7.0) with methanol as the mobile phase (typically 25-50% alcohol).
The formation of intermediate B and mono(acetoxymethyl) phosphate C was monitored by ion-pair chromatography on μ Bondapak-C using the same buffer system as described above, except that tetrabutylammonium hydroxide was added to a concentration 2×10^-3 M, or by anion-exchange chromatography on a column of Partisil SAX (25 cm×4.6 mm i.d., 10 μm; Whatman) using a linear gradient of 0.01-0.1M potassium phosphate buffer (pH 6.5) as an eluent. The flow rates for these analyses and the ones described above ranged from 1.0 to 2.0 ml/min. The column effluents were monitored at 254 nm with a Schoeffel model 450 UV detector, and the concentrations were determined by comparison of the peak areas with those of reference standards.

[1] = degradation on incubation with mouse plasma; format: in vitro ADME
Method: (§1) (At appropriate intervals, aliquots (100 μl) of the incubation mixtures were diluted with 3 volumes of methanol and then agitated for 1 minute on a Vortex shaker. The precipitated protein was separated by centrifugation at 10,000×g for 5 minutes, and the supernatants were analyzed by HPLC as described above.)
(§2) was incubated at […] with mouse plasma and hog liver carboxylate esterase.

[2] = degradation on incubation with hog liver carboxylate esterase; format: in vitro ADME; settings: pig, liver carboxylate esterase; 65 micrograms per milliliter, 37° C., pH 7.4, 8 milligrams protein per milliliter
Method: as §1, §2

[3] = test system: hog liver carboxylate esterase; test: as above; format: in vitro ADME
Method: as §1, §2

[4] = test system: Chinese hamster ovary cells; test: prevention of growth of Chinese hamster ovary cells in culture; format: cell-based
Method: Example 5 was repeated with the R substituent changed to fluorine (i.e., 2',5-dideoxy-5'-iodo-3'-O-acetyl-5-fluorouridine). There was a 15% yield of this product. This composition prevented the growth of Chinese hamster ovary cells in culture at a concentration of 5.0×10^-6 M [5-fluoro-2'-deoxyuridine (5-FUdR) control, 1.0×10^-6 M].
as §2

[5] = test system: P388 leukemia which is resistant to 5-fluorouracil; test: activity against P388 leukemia resistant to 5-fluorouracil; settings: P388 resistant to 5-fluorouracil
[6] = 65 micrograms per milliliter, 37° C., 0.05M potassium phosphate buffer (pH 7.4), mouse plasma 50% by volume

SMILES: CC(=O)OCOP(=O)(OCOC(C)=O)Oc1ccccc1 [Example 2, bis(acetoxymethyl) phenyl phosphate]
conversion in protonic solvents (physchem; ethanol, water or 0.05M potassium phosphate buffer (pH 7.4)): slowly converted to mono(acetoxymethyl) phenyl phosphate
half-life (physchem; ethanol, water or 0.05M potassium phosphate buffer (pH 7.4), read-out: half-life in protonic solvents): > 4 h
stability in neutral aprotic solvents (physchem; neutral aprotic solvents such as benzene, diethyl ether and ethyl acetate): stable
degradation in mouse plasma (first to mono(acetoxymethyl) analog, then to phenyl phosphate) [1, 6]: rapidly degraded
half-life [1, 6]: < 0.25 h
half-life [2]: < 0.25 h
degradation by hog liver carboxylate esterase (first to mono(acetoxymethyl) analog, then to phenyl phosphate) ([3]; 65 micrograms per milliliter, 37° C., pH 7.4, 8 milligrams protein per milliliter): rapidly degraded

SMILES: CC(C)(C)C(=O)OCOP(=O)(OCOC(=O)C(C)(C)C)Oc1ccccc1 [Example 3, bis(pivaloyloxymethyl) phenyl phosphate]
stability in protonic solvents (physchem; protonic solvents): stable in protonic solvents
resistance to both chemical and enzymatic hydrolysis ([1]; compared with the protected composition of Example 1 (so in the source)): much more resistant
half-life ([1]; pH 7.4, incubated with mouse plasma under the same conditions as in Example 2): ~5 h

SMILES: O=c1[nH]c(=O)n([C@H]2C[C@H](O)[C@@H](CO)O2)cc1F [Example 5-FUdR, 5-fluoro-2'-deoxyuridine, reference compound]
minimal effective concentration ([4]; Cricetulus griseus, read-out: concentration that prevented the growth of Chinese hamster ovary cells): 1 µM

SMILES: CC(C)(C)C(=O)OC1CCOP(=O)(Oc2ccccc2)O1 (stereo not shown) [Example 1]
stability in organic solvents or aqueous buffers (physchem; organic solvents or aqueous buffers): stable
conversion to phenyl phosphate with strong acids or bases (physchem; strong acids or bases): quantitatively converted to phenyl phosphate
reversion to phenyl phosphate in mouse plasma ([1]; 37° C., 30 minutes, mouse plasma): reverted to phenyl phosphate

cleavage of acyloxymethyl groups and 3'-acetyl group in mouse plasma [1]: successively cleaved to give 5-FdUMP
cleavage of acyloxymethyl groups and 3'-acetyl group with hog liver carboxylate esterase [3]: successively cleaved to give 5-FdUMP
SMILES: CC(=O)O[C@H]1C[C@H](n2cc(F)c(=O)[nH]c2=O)O[C@@H]1COP(=O)(OCOC(=O)C(C)(C)C)OCOC(=O)C(C)(C)C [Example 7]
concentration that prevented the growth of Chinese hamster ovary cells [4]: 1 µM
activity against P388 leukemia [5]: active

SMILES: CC(=O)O[C@H]1C[C@H](n2cc(F)c(=O)[nH]c2=O)O[C@@H]1COP(=O)(OCOC(=O)C(C)(C)C)OCOC(=O)C(C)(C)C [Example 6]
concentration that prevented the growth of Chinese hamster ovary cells [4]: 5 µM
